Where two headings read alike, the source gives them in different places.
What was measured:
IRF pathway = assay: STING THP1 reporter assay, IRF pathway (Lucia luciferase); format: cell-based; conditions: THP1-Dual cells, 10% human plasma, luciferase readout, 100% = 100 μM cGAMP, read-out: THP1 Reporter Assays EC50 IRF3
Excerpt: (§1) STING THP1 Reporter Assay Protocol
(§2) THP1-Dual™ cells were derived from the human THP-1 monocyte cell line by stable integration of two inducible reporter constructs. To this end, THP1-Dual™ cells allow the simultaneous study of the NF-κB pathway, by monitoring the activity of SEAP, and the IRF pathway by assessing the activity of a secreted luciferase (Lucia). Both reporter proteins are readily measurable in the cell culture supernatant when using QUANTI-Blue™, a SEAP detection reagent, and QUANTI-Luc™, a luciferase detection reagent.
(§3) THP1-Dual™ cells induce the activation of NF-κB in response to STING agonists. They also trigger the IRF pathway upon stimulation with STING agonists, such as cGAMP. Here, the THP-1-Dual cells were used to assess STING binders for function on the cellular level.
(§4) Serial dilutions of compounds in DMSO were added to low volume 384 well plates at 100 nl/well using an ECHO acoustic dispenser (Labcyte, model 550) to achieve final starting concentration of 100 μM in cell suspension. THP-1 Dual™ STING reporter cells (Invivogen, Dual cells cat #THPD-nfis) were added to the plates with compounds at 15,000 cells in 10 μL per well in RPMI media (Gibco, cat #11875) containing 10% human plasma in a low volume 384-well black wall clear bottom tissue culture plate (Corning, cat #3542) for SEAP assay and low volume solid white plate (Corning, cat #3826) for luciferase assay. One column of the plate was reserved for treatment with cGAMP at 100 μM for 100% activation calculation and one column for no treatment (DMSO only) for baseline activation. Plates were then incubated in 37 OC incubator at 5% CO2 for 20 hours.
(§5) In the SEAP assay, 5 μl of 2× QuantiBlue (Invivogen, cat #Rep-qb2) is added to 384 well black plates seeded with THP1 cells and incubated at 37° C. for 2 hours. Plates were read on the Envision (Perkin Elmer) at 620 nm wavelength (OD620). In the luciferase assay, 5 μl of Quantiluc (Invivogen, Rep-qlc2) is added to white 384 well plates seeded with THP1 cells and read at 5 minutes on the Envision (Perkin Elmer) using a luminescence protocol (RLU). For both cell lines, 100% activation was determined by value (RLU) of THP-1 Dual STING cells stimulated with 100 μM cGAMP (Invivogen, cat #TLRL-NACGA23-5).

[1] = molecular target: T1, STING WT: His-TVMV-S-hSTING(155-341)-H232R (Homo sapiens, UniProt Q86WV6, H232R); assay: STING HTRF competition binding assay, STING WT; conditions: 20 nM His-tagged STING cytoplasmic domain WT, 200 nM fluorescein-labeled cGAMP analog probe, one hour; read-out: HTRF Binding Assays IC50 WT
T1 construct: STING WT: His-TVMV-S-hSTING(155-341)-H232R
T1 sequence (Q86WV6 with tags, fused parts or gaps H232R): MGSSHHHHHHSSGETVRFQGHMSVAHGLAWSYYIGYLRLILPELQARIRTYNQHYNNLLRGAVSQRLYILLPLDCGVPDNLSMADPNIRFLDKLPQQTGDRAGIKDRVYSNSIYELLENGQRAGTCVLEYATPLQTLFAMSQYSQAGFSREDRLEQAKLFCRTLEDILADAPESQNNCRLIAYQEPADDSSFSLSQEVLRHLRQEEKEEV
Experimental: (§6) Sting HTRF Binding Assays
(§7) A time resolved FRET-based competition binding assay was used to assess test article binding to STING WT and STING AQ. His-tagged STING cytoplasmic domain (WT or AQ) at a concentration of 20 nM was incubated with 2.5 nM Tb-labeled anti-His antibody, test compound, and fluorescein-labeled cGAMP analog probe (BioLog cat. no. C195) at a concentration of 200 nM (STING WT) or 40 nM (STING AQ) in PBS containing 0.005% Tween-20 and 0.1% BSA for one hour. Fluorescence at 495 nm and 520 nm was measured using an EnVision microplate reader to quantify FRET between Tb-labeled anti-His antibody and fluorescein-labeled probe. Background was defined as the signal obtained in the absence of STING protein, and background subtracted FRET ratios were normalized to the maximum signal obtained in the absence of test compound. These values were converted to a percent inhibition. Percent inhibition was determined for test compounds at 11 concentrations. The IC50, defined as the concentration of competing test compound needed to reduce specific binding of the probe by 50%, was calculated using the 4 parameter logistic equation to fit the data

NF-κB pathway = assay: STING THP1 reporter assay, NF-κB pathway (SEAP); format: cell-based; conditions: THP1-Dual cells, 10% human plasma, SEAP readout, 100% = 100 μM cGAMP, read-out: THP1 Reporter Assays EC50 NFkB
Excerpt: as §1, §2, §3, §4, §5

[2] = molecular target: T2, STING AQ: His-TVMV-S-hSTING(155-341)-G230A-R293Q (Homo sapiens, UniProt Q86WV6, G230A/H232R/R293Q); assay: STING HTRF competition binding assay, STING AQ; conditions: 20 nM His-tagged STING cytoplasmic domain AQ, 40 nM fluorescein-labeled cGAMP analog probe, one hour; read-out: HTRF Binding Assays IC50 AQ
T2 construct: STING AQ: His-TVMV-S-hSTING(155-341)-G230A-R293Q
T2 sequence (Q86WV6 with tags, fused parts or gaps G230A/H232R/R293Q): as the sequence (Q86WV6 with tags, fused parts or gaps H232R) above, with G99A, R162Q counted along it
Experimental: as §6, §7

EC50 (IRF pathway; 20 hours) [nM]	IC50 [1] [nM]	EC50 (NF-κB pathway; 20 hours) [nM]	IC50 [2] [nM]	EC50 (IRF pathway; Homo sapiens, THP-1, 20 h) [nM]	EC50 (NF-κB pathway; Homo sapiens, THP-1, 20 h) [nM]	Structure (SMILES)
> 100000	2400	> 100000	90	–	–	NC(=O)c1cc([C@@H]2O[C@@H]3COP(=O)(S)O[C@H]4[C@@H](F)[C@H](n5cnc6c(N)ncnc65)O[C@@H]4COP(=O)(S)O[C@@H]2[C@@H]3O)[nH]n1 (single isomer, unassigned) [Example 1-1]
> 100000	910	> 100000	30	–	–	NC(=O)c1cc([C@@H]2O[C@@H]3COP(=O)(S)O[C@H]4[C@@H](F)[C@H](n5cnc6c(N)ncnc65)O[C@@H]4COP(=O)(S)O[C@@H]2[C@@H]3O)[nH]n1 (single isomer, unassigned) [Example 1-2]
4000	50	6800	10	–	–	NC(=O)c1cc([C@@H]2O[C@@H]3COP(=O)(S)O[C@H]4[C@@H](F)[C@H](n5cnc6c(N)ncnc65)O[C@@H]4COP(=O)(S)O[C@@H]2[C@@H]3O)[nH]n1 (single isomer, unassigned) [Example 1-3]
–	680	–	40	> 100000	> 100000	NC(=O)c1cc([C@@H]2O[C@@H]3COP(O)(=S)O[C@H]4[C@@H](F)[C@H](n5cnc6c(N)ncnc65)O[C@@H]4COP(O)(=S)O[C@@H]2[C@@H]3O)[nH]n1 (stereo partly shown) [Example 1-4]
